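The compound was tested at five concentrations on cells cultured in 96-well plates, with a 48-hour exposure period. TGI marks complete inhibition of growth.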
How the values were obtained:
Test in all cases: NCI-60 cell line screen, 48 h
UO-31 renal = system: UO-31 renal
786-0 renal = system: 786-0 renal
SR leukemia = system: SR leukemia
A549 NSCLC = system: A549 NSCLC
OVCAR-4 ovarian = system: OVCAR-4 ovarian
RPMI-8226 leukemia = system: RPMI-8226 leukemia
HOP-92 NSCLC = system: HOP-92 NSCLC
EKVX NSCLC = system: EKVX NSCLC
T-47D breast = system: T-47D breast
OVCAR-8 ovarian = system: OVCAR-8 ovarian
TK-10 renal = system: TK-10 renal
SF-539 CNS = system: SF-539 CNS
HL-60(TB) leukemia = system: HL-60(TB) leukemia
OVCAR-5 ovarian = system: OVCAR-5 ovarian
HCT-15 colon = system: HCT-15 colon
MDA-N = system: MDA-N
DU-145 prostate = system: DU-145 prostate
SK-MEL-5 melanoma = system: SK-MEL-5 melanoma
MOLT-4 leukemia = system: MOLT-4 leukemia
SK-MEL-28 melanoma = system: SK-MEL-28 melanoma
OVCAR-3 ovarian = system: OVCAR-3 ovarian
PC-3 prostate = system: PC-3 prostate
SW-620 colon = system: SW-620 colon
MDA-MB-231 breast = system: MDA-MB-231 breast
NCI-H522 lung = system: NCI-H522 lung
A498 renal = system: A498 renal
U251 CNS = system: U251 CNS
MCF7 breast = system: MCF7 breast
HOP-62 NSCLC = system: HOP-62 NSCLC
UACC-62 melanoma = system: UACC-62 melanoma
K-562 leukemia = system: K-562 leukemia
MDA-MB-435 = system: MDA-MB-435
COLO 205 colon = system: COLO 205 colon
HT29 colon = system: HT29 colon
NCI-H226 lung = system: NCI-H226 lung
HCC-2998 colon = system: HCC-2998 colon
HS 578T breast = system: HS 578T breast
SNB-19 CNS = system: SNB-19 CNS
NCI-H23 lung = system: NCI-H23 lung
SK-MEL-2 melanoma = system: SK-MEL-2 melanoma
ACHN renal = system: ACHN renal
HCT-116 colon = system: HCT-116 colon
RXF 393 renal = system: RXF 393 renal
MALME-3M melanoma = system: MALME-3M melanoma
SN12C renal = system: SN12C renal
M14 melanoma = system: M14 melanoma
CCRF-CEM leukemia = system: CCRF-CEM leukemia
KM12 colon = system: KM12 colon
SF-268 CNS = system: SF-268 CNS
NCI-H460 lung = system: NCI-H460 lung
UACC-257 melanoma = system: UACC-257 melanoma
IGROV1 ovarian = system: IGROV1 ovarian
SK-OV-3 ovarian = system: SK-OV-3 ovarian
LOX IMVI melanoma = system: LOX IMVI melanoma
SNB-75 CNS = system: SNB-75 CNS
SF-295 CNS = system: SF-295 CNS
CAKI-1 renal = system: CAKI-1 renal
NCI/ADR-RES ovarian = system: NCI/ADR-RES ovarian

`CCOC(=O)c1c(SCCCN2CCCCC2)n(-c2ccccc2)c(=S)n(-c2ccccc2)c1=O` gave a TGI (UO-31 renal) of 29.1 µM, a TGI (786-0 renal) of 13.5 µM and a TGI (SR leukemia) of 67 µM. The TGI (A549 NSCLC) was 33.9 µM, the TGI (OVCAR-4 ovarian) was 31.5 µM and the TGI (RPMI-8226 leukemia) was over 100 µM. It also gave a TGI (HOP-92 NSCLC) of 29.1 µM, a TGI (EKVX NSCLC) of 91.8 µM and a TGI (T-47D breast) of 32.6 µM. It also gave a TGI (OVCAR-8 ovarian) of 33.6 µM, a TGI (TK-10 renal) of 34.8 µM and a TGI (SF-539 CNS) of 27.9 µM. For the same molecule, the TGI (HL-60(TB) leukemia) was 7.69 µM, the TGI (OVCAR-5 ovarian) was 34.2 µM and the TGI (HCT-15 colon) was 33.2 µM. It also gave a TGI (MDA-N) of 28.5 µM, a TGI (DU-145 prostate) of 29.9 µM and a TGI (SK-MEL-5 melanoma) of 30.1 µM. The TGI (MOLT-4 leukemia) was 35 µM, the TGI (SK-MEL-28 melanoma) was 31.9 µM and the TGI (OVCAR-3 ovarian) was 30.4 µM. It also gave a TGI (PC-3 prostate) of 30 µM, a TGI (SW-620 colon) of 35.4 µM and a TGI (MDA-MB-231 breast) of 46.1 µM. For the same molecule, the TGI (NCI-H522 lung) was 34.9 µM, the TGI (A498 renal) was 35.6 µM and the TGI (U251 CNS) was 30.5 µM. The TGI (MCF7 breast) was 37.6 µM, the TGI (HOP-62 NSCLC) was over 100 µM and the TGI (UACC-62 melanoma) was 25.2 µM. It also gave a TGI (K-562 leukemia) of 41.3 µM, a TGI (MDA-MB-435) of 29.7 µM and a TGI (COLO 205 colon) of 32 µM. It also gave a TGI (HT29 colon) of 37.5 µM, a TGI (NCI-H226 lung) of 34 µM and a TGI (HCC-2998 colon) of 31.1 µM. The TGI (HS 578T breast) was 46.5 µM, the TGI (SNB-19 CNS) was 31.4 µM and the TGI (NCI-H23 lung) was 33.9 µM. The TGI (SK-MEL-2 melanoma) was 30.9 µM, the TGI (ACHN renal) was 44.7 µM and the TGI (HCT-116 colon) was 24.8 µM. It also gave a TGI (RXF 393 renal) of 32.2 µM, a TGI (MALME-3M melanoma) of 29.8 µM and a TGI (SN12C renal) of 29.7 µM. It also gave a TGI (M14 melanoma) of 31.9 µM, a TGI (CCRF-CEM leukemia) of 49.3 µM and a TGI (KM12 colon) of 34 µM. It also gave a TGI (SF-268 CNS) of over 100 µM.

In the case of `Nc1nc2c(ncn2C2C=CC(COS(N)(=O)=O)C2)c(=O)[nH]1` (configuration not stated), the TGI (NCI-H460 lung) is reported as over 100 µM, the TGI (UO-31 renal) is reported as over 100 µM and the TGI (786-0 renal) is reported as over 100 µM. For the same molecule, the TGI (SR leukemia) was over 100 µM, the TGI (A549 NSCLC) was over 100 µM and the TGI (OVCAR-4 ovarian) was over 100 µM. It also gave a TGI (UACC-257 melanoma) of over 100 µM, a TGI (IGROV1 ovarian) of over 100 µM and a TGI (RPMI-8226 leukemia) of over 100 µM. It also gave a TGI (HOP-92 NSCLC) of over 100 µM, a TGI (SK-OV-3 ovarian) of over 100 µM and a TGI (EKVX NSCLC) of over 100 µM. The TGI (T-47D breast) was over 100 µM, the TGI (OVCAR-8 ovarian) was over 100 µM and the TGI (LOX IMVI melanoma) was over 100 µM. The TGI (SNB-75 CNS) was over 100 µM, the TGI (TK-10 renal) was over 100 µM and the TGI (SF-539 CNS) was over 100 µM. It also gave a TGI (SF-295 CNS) of over 100 µM, a TGI (HL-60(TB) leukemia) of over 100 µM and a TGI (OVCAR-5 ovarian) of over 100 µM. The TGI (HCT-15 colon) was over 100 µM, the TGI (MDA-N) was over 100 µM and the TGI (DU-145 prostate) was over 100 µM. For the same molecule, the TGI (SK-MEL-5 melanoma) was over 100 µM, the TGI (MOLT-4 leukemia) was over 100 µM and the TGI (CAKI-1 renal) was over 100 µM. It also gave a TGI (SK-MEL-28 melanoma) of over 100 µM, a TGI (OVCAR-3 ovarian) of over 100 µM and a TGI (PC-3 prostate) of over 100 µM. It also gave a TGI (SW-620 colon) of over 100 µM, a TGI (MDA-MB-231 breast) of over 100 µM and a TGI (U251 CNS) of over 100 µM. The TGI (MCF7 breast) was over 100 µM, the TGI (HOP-62 NSCLC) was over 100 µM and the TGI (UACC-62 melanoma) was over 100 µM. It also gave a TGI (K-562 leukemia) of over 100 µM, a TGI (MDA-MB-435) of over 100 µM and a TGI (COLO 205 colon) of over 100 µM. It also gave a TGI (HT29 colon) of over 100 µM, a TGI (NCI-H226 lung) of over 100 µM and a TGI (HCC-2998 colon) of over 100 µM. It also gave a TGI (HS 578T breast) of over 100 µM, a TGI (SNB-19 CNS) of over 100 µM and a TGI (NCI-H23 lung) of over 100 µM. The TGI (SK-MEL-2 melanoma) was over 100 µM, the TGI (ACHN renal) was over 100 µM and the TGI (HCT-116 colon) was over 100 µM. The TGI (RXF 393 renal) was over 100 µM, the TGI (MALME-3M melanoma) was over 100 µM and the TGI (NCI/ADR-RES ovarian) was over 100 µM. It also gave a TGI (SN12C renal) of over 100 µM, a TGI (M14 melanoma) of over 100 µM and a TGI (CCRF-CEM leukemia) of over 100 µM. It also gave a TGI (KM12 colon) of over 100 µM and a TGI (SF-268 CNS) of over 100 µM.

Molecule `COc1ccc2cc(C(=O)NCCCNC(=O)c3ccc4c(OC)c(OC)ccc4c3)ccc2c1OC` has a TGI (NCI-H460 lung) of over 100 µM, a TGI (UO-31 renal) of over 100 µM and a TGI (786-0 renal) of over 100 µM. For the same molecule, the TGI (SR leukemia) was over 100 µM, the TGI (A549 NSCLC) was over 100 µM and the TGI (OVCAR-4 ovarian) was over 100 µM. It also gave a TGI (UACC-257 melanoma) of over 100 µM, a TGI (RPMI-8226 leukemia) of over 100 µM and a TGI (SK-OV-3 ovarian) of over 100 µM. The TGI (EKVX NSCLC) was over 100 µM, the TGI (T-47D breast) was over 100 µM and the TGI (LOX IMVI melanoma) was over 100 µM. It also gave a TGI (SF-295 CNS) of over 100 µM, a TGI (OVCAR-5 ovarian) of over 100 µM and a TGI (HCT-15 colon) of over 100 µM. The TGI (MDA-N) was over 100 µM, the TGI (DU-145 prostate) was over 100 µM and the TGI (SK-MEL-5 melanoma) was over 100 µM. For the same molecule, the TGI (MOLT-4 leukemia) was over 100 µM, the TGI (CAKI-1 renal) was over 100 µM and the TGI (SK-MEL-28 melanoma) was over 100 µM. For the same molecule, the TGI (OVCAR-3 ovarian) was over 100 µM, the TGI (PC-3 prostate) was over 100 µM and the TGI (SW-620 colon) was over 100 µM. For the same molecule, the TGI (MDA-MB-231 breast) was over 100 µM, the TGI (NCI-H522 lung) was over 100 µM and the TGI (A498 renal) was over 100 µM. The TGI (U251 CNS) was over 100 µM, the TGI (MCF7 breast) was over 100 µM and the TGI (HOP-62 NSCLC) was over 100 µM. It also gave a TGI (UACC-62 melanoma) of over 100 µM, a TGI (K-562 leukemia) of over 100 µM and a TGI (MDA-MB-435) of over 100 µM. It also gave a TGI (COLO 205 colon) of over 100 µM, a TGI (HT29 colon) of over 100 µM and a TGI (HCC-2998 colon) of over 100 µM. It also gave a TGI (SNB-19 CNS) of over 100 µM, a TGI (NCI-H23 lung) of over 100 µM and a TGI (SK-MEL-2 melanoma) of over 100 µM. It also gave a TGI (ACHN renal) of over 100 µM, a TGI (HCT-116 colon) of over 100 µM and a TGI (RXF 393 renal) of over 100 µM. The TGI (NCI/ADR-RES ovarian) was over 100 µM, the TGI (SN12C renal) was over 100 µM and the TGI (CCRF-CEM leukemia) was over 100 µM. It also gave a TGI (KM12 colon) of over 100 µM and a TGI (SF-268 CNS) of over 100 µM.
